We go through ten compounds from article PMC6007963, “An ^18F-Labeled Poly(ADP-ribose) Polymerase Positron Emission Tomography Imaging Agent” (Journal of Medicinal Chemistry, 2018).

On the set-up of data set [1]: method as in PMID 26493053. The settings on record: at 120 min; cited from earlier work.
Data set [2] has as its system U87MG-Luc2 human glioblastoma tumor xenografts. The data set is described as follows: ex vivo biodistribution in subcutaneous U87MG-Luc2 glioblastoma bearing nude mice. Further details: species or system mouse. As to the method: Following successful optimization of the radiochemistry, the behavior of [^18F]20 was investigated in vivo in mice bearing subcutaneous U87MG-Luc2 human glioblastoma tumor xenografts using ex vivo biodistribution and PET–MR imaging techniques. Ex vivo biodistribution of [^18F]20 was established at 30, 60, and 120 min after intravenous radiotracer administration, and PET data were acquired by performing a 45 min dynamic scan. […] This is in contrast to observations made by Carney et al., who reported <2%ID/g of bone of [^18F]8 at 120 min.[34] The high bone uptake seen with [^18F]20 could be explained by in vivo defluorination and subsequent radiofluoride accumulation in bone tissue.[35] Despite this, apparent radiotracer tumor uptake was identified in both biodistribution and PET–MR imaging experiments (Figures 3a,c), whereas in the case of the former, the mean ratio of %ID/g of glioblastoma tumor to muscle increased from 1.9 ± 0.5 (n = 4) to 3.6 ± 0.5 (n = 4) between the 30 and 120 min time points.
(§1) U87MG-Luc2 glioblastoma cell culture and implantation procedures were performed as reported previously.[19] Briefly, U87MG-Luc2 cells were purchased commercially from ATCC and cultured in minimum essential media that has been supplemented with 10% w/v fetal calf serum and 2 mM L-glutamine at 37 °C and 5% v/v CO2. Unconscious female CD1 nude mice (6–11 week old; purchased from Charles River Laboratories) had 5 × 10^6 U87MG-Luc2 cells injected subcutaneously into the right flank. The resulting tumor xenografts were measured and monitored visually every 3 days, and tumor-bearing animals were used for in vivo studies 28–30 days post-implantation.
(§2) Subcutaneous tumor bearing mice were administered 1.8–2.6 MBq of [^18F]20 in 0.11–0.21 mL of 5% v/v DMSO in 0.9% saline via bolus tail-vein injections. The remainder of the experiment was conducted as described previously.[19]

In data set [3] the target is T1, PARP in U87MG-Luc2 human glioblastoma xenografts (Homo sapiens, UniProt P09874).
T1 construct: from tissue; host or cells: subcutaneous U87MG-Luc2 human glioblastoma xenograft in female CD1 nude mice
The data set is described as follows: ex vivo biodistribution with preblockade by nonradioactive 1. It counts as in vivo, mouse. Here is the method:
To establish the specificity of [^18F]20 for PARP in bone and tumor tissue, further biodistribution studies were performed on subcutaneous U87MG-Luc2 glioblastoma bearing mice that had PARP binding sites blocked by pretreatment with nonradioactive compound 1 at a dose of 50 mg/kg 20 min prior to [^18F]20 administration. […] This supports the earlier proposed possibility of in vivo [^18F]20 defluorination, leading to free radiofluoride accumulation in the bone.
as §1, §2

Data set [4] can be described thus: lipophilicity (log Poct) by C-18 reverse-phase HPLC. The format is physicochemical. Particulars: C-18 reverse-phase HPLC column.
Another data set concerns the target human serum albumin (Homo sapiens, UniProt P02768). The data set is described as follows: percentage plasma protein binding by human serum albumin coated HPLC column. The format is in vitro ADME. The settings on record: for fraction unbound: human, read-out: %PPB (converted).
Data set [5] in a line: intrinsic clearance in human liver microsomes. The format is in vitro ADME. The settings on record: for microsomal CLint: human, liver microsomes. From the text:
(§3) However, these were still within the optimal range for a nuclear imaging agent. […] Collectively, the optimal physiochemical properties and low nanomolar PARP cell-free and cellular IC50 values supported further investigation of 20 as a potential radiotracer for PARP. In the body, radiotracers can be exposed to a number of metabolic pathways, including blood plasma hydrolysis and liver functionalization or conjugation reactions that can have a significant effect on the kinetic properties of the tracer and, subsequently its usefulness in nuclear imaging. With this in mind, the in vitro plasma and liver microsome stability of lead candidate 20 were established by incubating the compound in mouse plasma proteins and human liver microsome enzymes, respectively, using previously described methodologies.[19]
For orientation: Liver microsomes are a subcellular fraction often used to study metabolism.

The target in a further data set is PARP-1 (Homo sapiens, UniProt P09874). The data set is described as follows: cell-free PARP-1 IC50 assay (colorimetric dose-response).
The next data set can be described thus: mouse plasma stability. It counts as in vitro ADME.
Text: as §3

Where [6] appears, read: experiment 1, read-out: Clint, experiment 1.
Where [7] appears, read: experiment 2, read-out: Clint, experiment 2.

Molecules are shown by their SMILES. Where two headings read alike, the source gives them in different places.

T1 sequence (P09874 whole entry): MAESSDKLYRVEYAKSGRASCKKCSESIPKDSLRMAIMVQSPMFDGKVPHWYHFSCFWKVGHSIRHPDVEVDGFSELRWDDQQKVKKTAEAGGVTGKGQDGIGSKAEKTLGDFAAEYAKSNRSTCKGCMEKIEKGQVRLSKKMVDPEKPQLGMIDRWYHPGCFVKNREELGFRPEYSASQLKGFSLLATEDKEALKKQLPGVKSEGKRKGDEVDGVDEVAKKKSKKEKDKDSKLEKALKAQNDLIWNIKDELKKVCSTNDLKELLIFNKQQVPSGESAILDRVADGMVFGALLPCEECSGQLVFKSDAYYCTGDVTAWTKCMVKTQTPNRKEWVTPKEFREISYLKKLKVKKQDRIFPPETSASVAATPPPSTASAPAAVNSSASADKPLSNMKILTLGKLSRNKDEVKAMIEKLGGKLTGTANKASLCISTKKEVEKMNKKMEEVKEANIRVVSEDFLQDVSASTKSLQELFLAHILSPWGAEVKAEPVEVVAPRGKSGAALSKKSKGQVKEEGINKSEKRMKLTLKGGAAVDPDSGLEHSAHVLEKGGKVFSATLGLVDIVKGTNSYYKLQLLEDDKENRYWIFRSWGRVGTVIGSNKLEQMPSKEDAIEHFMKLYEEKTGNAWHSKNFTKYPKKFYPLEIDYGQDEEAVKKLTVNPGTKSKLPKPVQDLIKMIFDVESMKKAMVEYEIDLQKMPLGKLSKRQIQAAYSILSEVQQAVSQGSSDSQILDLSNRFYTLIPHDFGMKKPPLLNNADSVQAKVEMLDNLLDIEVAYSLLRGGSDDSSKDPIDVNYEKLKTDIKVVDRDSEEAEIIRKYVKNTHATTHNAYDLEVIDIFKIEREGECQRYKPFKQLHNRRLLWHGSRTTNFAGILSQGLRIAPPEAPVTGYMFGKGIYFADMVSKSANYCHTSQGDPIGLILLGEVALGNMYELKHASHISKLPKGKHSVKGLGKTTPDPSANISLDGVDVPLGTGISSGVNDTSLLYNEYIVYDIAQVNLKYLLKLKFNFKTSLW
Sequence of PARP-1 (P09874 whole entry, species assumed): as the sequence (P09874 whole entry) above
Sequence of human serum albumin (P02768 25-609): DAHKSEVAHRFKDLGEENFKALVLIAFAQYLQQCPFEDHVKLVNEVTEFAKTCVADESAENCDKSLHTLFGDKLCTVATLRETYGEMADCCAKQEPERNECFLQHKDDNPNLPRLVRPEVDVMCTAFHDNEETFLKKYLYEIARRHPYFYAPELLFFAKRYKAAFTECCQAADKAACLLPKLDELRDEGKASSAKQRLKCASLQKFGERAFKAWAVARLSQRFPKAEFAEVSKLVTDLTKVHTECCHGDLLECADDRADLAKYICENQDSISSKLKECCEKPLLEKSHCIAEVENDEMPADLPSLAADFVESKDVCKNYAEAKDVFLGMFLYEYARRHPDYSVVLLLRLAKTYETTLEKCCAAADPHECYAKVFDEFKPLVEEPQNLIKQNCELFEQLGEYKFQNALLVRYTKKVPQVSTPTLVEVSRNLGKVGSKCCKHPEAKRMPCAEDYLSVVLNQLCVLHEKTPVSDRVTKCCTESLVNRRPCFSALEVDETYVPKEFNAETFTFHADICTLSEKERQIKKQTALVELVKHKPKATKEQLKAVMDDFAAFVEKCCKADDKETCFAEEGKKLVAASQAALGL

On to `O=C(c1ccc([18F])cc1)N1CCN(C(=O)c2cc(Cc3n[nH]c(=O)c4ccccc34)ccc2F)CC1` [[^18F]8], for which the “%ID/g of bone” value in data set [1] is under 2 %ID/g.
For the compound `O=C(c1ccc(C[18F])cc1)N1CCN(C(=O)c2cc(Cc3n[nH]c(=O)c4ccccc34)ccc2F)CC1` [[^18F]20], the “mean ratio of %ID/g of glioblastoma tumor to muscle, 30 min” value in data set [2] (30 min after intravenous injection, n = 4) came to 1.9 ± 0.5. Besides, the “mean ratio of %ID/g of glioblastoma tumor to muscle, 120 min” value in data set [2] (120 min after intravenous injection, n = 4) came out at 3.6 ± 0.5. For the same compound, the “mean percentage of injected dose per gram (%ID/g) of femur tissue” value in data set [2] (across 30, 60 and 120 min after intravenous tracer administration) was over 8.5%. Also, the “ratio of %ID/g of tumor to muscle, preblockade using 1” value in data set [3] (60 min after [18F]20 administration, 50 mg/kg of 1 given 20 min prior, P < 0.05 vs vehicle) is 1.07 ± 0.15. In addition, the “ratio of %ID/g of tumor to muscle, vehicle-pretreated mice” value in data set [3] (60 min after [18F]20 administration, vehicle pretreatment) turned out to be 1.79 ± 0.39. In addition, in data set [3] (60 min after radioligand administration, 50 mg/kg of 1 pretreatment), the “uptake in bone tissue in presence of excess nonradioactive 1” value is listed as “not influenced”.
Usually chromatographic logP stands for lipophilicity estimated from chromatographic retention. In turn, `O=C(c1cc(Cc2n[nH]c(=O)c3ccccc23)ccc1F)N1CCN(C(=O)C2CC2)CC1` [compound 1, olaparib, reference compound] gave a chromatographic logP in data set [4] of 1.95. In addition, the “%PPB” value on human serum albumin was 75.9%. The values for the microsomal CLint in data set [5] (setting [6]) and in data set [5] (setting [7]) were 23 µL/min/mg and 34 µL/min/mg, respectively.
The compound `O=C(c1ccc(F)cc1)N1CCN(C(=O)c2cc(Cc3n[nH]c(=O)c4ccccc34)ccc2F)CC1` [compound 8, 4-[3′-[4″-(4‴-Fluorobenzoyl)piperazine-1″-carbonyl]-4′-fluorobenzyl]-2H-phthalazin-1-one] had a chromatographic logP in data set [4] of 2.51. Further, the fraction unbound at human serum albumin is 0.141.
The term IC50 denotes the concentration that gives 50% inhibition. Read a low IC50 as higher potency. The compound `O=C(c1ccccc1F)N1CCN(C(=O)c2cc(Cc3n[nH]c(=O)c4ccccc34)ccc2F)CC1` [compound 9, 4-[3′-[4″-(2‴-Fluorobenzoyl)piperazine-1″-carbonyl]-4′-fluorobenzyl]-2H-phthalazin-1-one] had a chromatographic logP in data set [4] of 2.46. At human serum albumin, the fraction unbound is 0.136. Also, at PARP-1, the IC50 was determined as 3.6 nM.
`Cc1cc(F)ccc1C(=O)N1CCN(C(=O)c2cc(Cc3n[nH]c(=O)c4ccccc34)ccc2F)CC1` [compound 10, 4-[3′-[4″-(4‴-Fluoro-2‴-methylbenzoyl)piperazine-1″-carbonyl]-4′-fluorobenzyl]-2H-phthalazin-1-one]: the chromatographic logP in data set [4] came to 2.66. Also, the fraction unbound at human serum albumin was 0.139. The same compound displayed an IC50 at PARP-1 of 2.9 nM.
In data set [4], `O=C(Cc1ccc(F)cc1)N1CCN(C(=O)c2cc(Cc3n[nH]c(=O)c4ccccc34)ccc2F)CC1` [compound 11, 4-[3′-[4″-[(4‴-Fluorophenyl)acetyl]piperazine-1″-carbonyl]-4′-fluorobenzyl]-2H-phthalazin-1-one] registered a chromatographic logP of 2.67. For the same compound, on human serum albumin, the fraction unbound was 0.101. The compound further returned a 50% inhibitory concentration (IC50) at PARP-1 of 1.3 nM.
In data set [4], `O=C(CCC(=O)N1CCN(C(=O)c2cc(Cc3n[nH]c(=O)c4ccccc34)ccc2F)CC1)c1ccc(F)cc1` [compound 12, 4-[3′-[4′′′′′-[(4‴-Fluorophenyl)butane-1′′′′,4′′′′-dione]-piperazine-1‴-carbonyl]4″-fluorobenzyl]-2H-phthalazin-1-one] came in with a chromatographic logP of 2.81. For the same compound, the fraction unbound at human serum albumin is 0.094. This compound gave a concentration for half-maximal inhibition (IC50) on PARP-1 of 4.1 nM.
In data set [4], `O=C(c1cc(Cc2n[nH]c(=O)c3ccccc23)ccc1F)N1CCN(Cc2ccc(F)cc2)CC1` [compound 13, 4-[3′-[4″-(4‴-Fluorobenzyl)piperazine-1″-carbonyl]-4′-fluorobenzyl]-2H-phthalazin-1-one] yielded a chromatographic logP of 3.14. Besides, the fraction unbound on human serum albumin was 0.053. This compound also registered an IC50 on PARP-1 of 11.2 nM.
`O=C(c1ccc(CF)cc1)N1CCN(C(=O)c2cc(Cc3n[nH]c(=O)c4ccccc34)ccc2F)CC1` [compound 20] displayed a chromatographic logP in data set [4] of 2.51. Also, at human serum albumin, the fraction unbound was 0.107. In addition, the “stability in mouse plasma” value in the data set “mouse plasma stability” (20 h incubation in mouse plasma) is listed as “negligible decomposition”. For the same compound, the “plasma stability, 20 h” value in the data set “mouse plasma stability” (mean percentage of parent compound remaining after 20 h incubation in mouse plasma) came out at 95%. The “plasma stability, 0 h” value in “mouse plasma stability” (mean percentage of parent compound remaining, mouse plasma, 0 h) amounted to 93%. Moreover, the “intrinsic clearance fold greater in comparison to 1” value in data set [5] (compared with 1) was “approximately 3 fold”. Further, the microsomal CLint in data set [5] (setting [6]) is 74 µL/min/mg; in data set [5] (setting [7]), 90 µL/min/mg. The same compound returned an IC50 against PARP-1 of 2 nM. In addition, the “cell-free IC50 fold less than that of 1” value on PARP-1 (compared with 1) worked out at 6 fold. Besides, the “cell-free IC50 fold less than that of 8” value on PARP-1 (compared with 8) was determined as 3 fold.
